In patent US8557984B2, “Imidazo [4, 5-C] quinoline derivatives as bromodomain inhibitors” (GlaxoSmithKline LLC, priority 2009, dated 2013):

Assays:
TNFα = assay: LPS Stimulated Whole Blood Measuring TNFα Levels Assay; assay type: cell-based; conditions: LPS 200 ng/ml, 24 h, read-out: pIC50 (TNFα levels) (converted)
Procedure: (§1) Activation of monocytic cells by agonists of toll-like receptors such as bacterial lipopolysaccharide (LPS) results in production of key inflammatory mediators including TNFα. Such pathways are widely considered to be central to the pathophysiology of a range of auto-immune and inflammatory disorders.
Compounds to be tested are diluted to give a range of appropriate concentrations and 1 ul of the dilution stocks is added to wells of a 96 plate. Following addition of whole blood (130 ul) the plates are incubated at 37 degrees (5% CO2) for 30 min before the addition of 10 ul of 2.8 ug/ml LPS, diluted in complete RPMI 1640 (final concentration=200 ng/ml), to give a total volume of […] per well. After further incubation for 24 h at 37 degrees, 140 ul of PBS are added to each well. The plates are sealed, shaken for 10 minutes and then centrifuged (2500 rpm×10 min). 100 ul of the supernatant are removed and TNFα levels assayed by immunoassay (typically by MesoScale Discovery technology) either immediately or following storage at −20 degrees. Dose response curves for each compound was generated from the data and an IC50 value was calculated.

Balb/c male mice = assay: In Vivo Mouse Endotoxemia Model; conditions: 15 mg/kg LPS i.p., compound 10 mg/kg intravenously ninety minutes later; for Numbers of animals surviving at 4 days (summed across multiple repeat experiments): survivors/total
From the text: High doses of Endotoxin (bacterial lipopolysaccharide) administered to animals produce a profound shock syndrome including a strong inflammatory response, dysregulation of cardiovascular function, organ failure and ultimately mortality. This pattern of response is very similar to human sepsis and septic shock, where the body's response to a significant bacterial infection can be similarly life threatening.
To test the compounds for use in the invention groups of eight Balb/c male mice were given a lethal dose of 15 mg/kg LPS by intraperitoneal injection. Ninety minutes later, animals were dosed intravenously with vehicle (20% cyclodextrin 1% ethanol in apyrogen water) or compound (10 mg/kg). The survival of animals was monitored at 4 days.
Numbers of animals surviving at 4 days (summed across multiple repeat experiments)

IL-6 = assay: Measurement of LPS Induced IL-6 Secretion from Whole Blood; assay type: cell-based; conditions: LPS 200 ng/ml, 24 hours, read-out: pIC50 (IL-6 levels) (converted)
Procedure: as §1, with “IL-6.” for “TNFα.”
Compounds to be tested are diluted to give a range of appropriate concentrations of which 1 ul of the diluted stocks is added to a 96 well plate. Following addition of whole blood (130 ul) the plates are incubated at 37 degrees (5% CO2) for 30 min before the addition of 10 ul of 2.8 ug/ml LPS, diluted in complete RPMI 1640 (final concentration=200 ng/ml), to give a total volume of 140 ul per well. After further incubation for 24 hours at 37 degrees, 140 ul of PBS are added to each well. The plates are sealed, shaken for 10 minutes and then centrifuged (2500 rpm×10 min). 100 ul of the supernatant are removed and IL-6 levels assayed by immunoassay (typically by MesoScale Discovery technology) either immediately or following storage at −20 degrees. Concentration response curves for each compound was generated from the data and an IC50 value was calculated

[1] = system: Human cell lines (n=33 comprising 15 heme cell lines, 14 breast cell lines and 4 other cell lines); assay: Oncology Cell Growth Assay, all cell lines; assay type: cell-based; conditions: across all cell lines, 72 hours, CellTiter-Glo, read-out: gIC50
Procedure: (§2) Human cell lines (n=33 comprising 15 heme cell lines, […] and 4 other cell lines) were cultured in RPMI-1640 containing 10% fetal bovine serum, 1000 viable cells per well were plated in 384-well black flat bottom polystyrene plates (Greiner #781086) in 48 μl of culture media. All plates were placed at 5% CO2, 37° C. overnight. The following day one plate was harvested with CellTiter-Glo (CTG, Promega #G7573) for a time equal to 0 (T0) measurement and compound (20 point titration from 14.7 uM to 7 pM) was added to the remaining plates. The final concentration of DMSO in all wells was 0.15%. Cells were incubated for 72 hours or the indicated time and each plate was developed with CellTiter-Glo reagent using a volume equivalent to the cell culture volume in the wells. Plates were shaken for approximately 2 minutes and chemiluminescent signal was read on the Analyst GT (Molecular Devices) or EnVision Plate Reader (Perkin Elmer).
(§3) Results were expressed as a percent of the T0 and plotted against the compound concentration. […] The Ymin-T0 value is determined by subtracting the T0 value (100%) from the Ymin value (%) determined from the fit of the concentration response curve. […]

heme cell lines = assay: Oncology Cell Growth Assay, heme cell lines; assay type: cell-based; conditions: Homo sapiens, 72 hours, CellTiter-Glo, read-out: gIC50
Procedure: as §2, §3

breast cell lines = assay: Oncology Cell Growth Assay, breast cell lines; assay type: cell-based; conditions: Homo sapiens, 72 hours, CellTiter-Glo, read-out: gIC50
Procedure: as §2, §3

SMILES | IC50 (TNFα) [µM] | IC50 (IL-6) [µM] | other results
COc1cc2c(cc1-c1c(C)noc1C)ncc1nc(C3CCOCC3)n([C@H](C)c3ccccc3)c12 [Example 31, 7-(3,5-dimethyl-4-isoxazolyl)-8-(methoxy)-1-[(1R)-1-phenylethyl]-2-(tetrahydro-2H-pyran-4-yl)-1H-imidazo[4,5-c]quinoline] | ≤ 3.16 | – | Animals surviving at 4 days, percent (Balb/c male mice): 38%; Numbers of animals surviving at 4 days (summed across multiple repeat experiments) (Balb/c male mice): 9/24
COc1cc2c(cc1-c1c(C)noc1C)ncc1nc(C3CCOCC3)n(Cc3ccccn3)c12 [Example 27, 7-(3,5-dimethyl-4-isoxazolyl)-8-(methoxy)-1-(2-pyridinylmethyl)-2-(tetrahydro-2H-pyran-4-yl)-1H-imidazo[4,5-c]quinoline] | ≤ 3.16 | – | –
COCCn1c(=O)n([C@H](C)c2ccccn2)c2c3cc(OC)c(-c4c(C)noc4C)cc3ncc21 [Example 37, 7-(3,5-dimethyl-4-isoxazolyl)-8-(methyloxy)-3-[2-(methyloxy)ethyl]-1-[(1R)-1-(2-pyridinyl)ethyl]-1,3-dihydro-2H-imidazo[4,5-c]quinolin-2-one] | – | ≤ 3.16 | –
COc1cc2c(cc1-c1c(C)noc1C)ncc1[nH]c(=O)n(C(C)c3cnn(C)c3)c12 (stereo not drawn) [Example 40, 7-(3,5-dimethyl-4-isoxazolyl)-8-(methyloxy)-1-[1-(1-methyl-1H-pyrazol-4-yl)ethyl]-1,3-dihydro-2H-imidazo[4,5-c]quinolin-2-one] | – | ≤ 3.16 | –
COc1cc2c(cc1-c1c(C)noc1C)ncc1[nH]c(=O)n(-c3ccccc3OC(F)(F)F)c12 [Example 12, 7-(3,5-dimethyl-4-isoxazolyl)-8-(methoxy)-1-{2-[(trifluoromethyl)oxy]phenyl}-1,3-dihydro-2H-imidazo[4,5-c]quinolin-2-one] | ≤ 3.16 | – | –
COc1cc2c(cc1-c1c(C)noc1C)ncc1nc(C3CCOCC3)n([C@H](C)c3ccccn3)c12 (single isomer, unassigned) [Example 45] | – | ≤ 3.16 | –
COc1cc2c(cc1-c1c(C)noc1C)ncc1[nH]c(=O)n(Cc3ccccc3)c12 [Example 15] | ≤ 3.16 | – | –
COc1nc2c(cc1-c1c(C)noc1C)ncc1[nH]c(=O)n(-c3ccccc3OC(F)(F)F)c12 [Example 126, 7-(3,5-dimethyl-4-isoxazolyl)-8-(methyloxy)-1-{2-[(trifluoromethyl)oxy]phenyl}-1,3-dihydro-2H-imidazo[4,5-c]-1,5-naphthyridin-2-one] | ≤ 3.16 | – | –
Cc1noc(C)c1-c1ccc2c(c1)ncc1ncn(-c3ccccc3C(C)(C)C)c12 [Example 18, 1-[2-(tert-butyl)phenyl]-7-(3,5-dimethyl-4-isoxazolyl)-1H-imidazo[4,5-c]quinoline] | – | – | melting point: 216 °C
COCc1nc2cnc3cc(-c4c(C)noc4C)c(OC)cc3c2n1C(C)c1ccccn1 (stereo not drawn) [Example 51, 7-(3,5-dimethyl-4-isoxazolyl)-8-(methyloxy)-2-[(methyloxy)methyl]-1-[1-(2-pyridinyl)ethyl]-1H-imidazo[4,5-c]quinoline] | – | ≤ 3.16 | –
COc1cc2c(cc1-c1c(C)noc1C)ncc1[nH]c(=O)n([C@@H](C)c3ccccn3)c12 (single isomer, unassigned) [Example 39] | – | ≤ 3.16 | –
COc1cc2c(cc1-c1c(C)noc1C)ncc1[nH]c(=O)n([C@H](C)c3ccccn3)c12 [Example 11, 7-(3,5-dimethyl-4-isoxazolyl)-8-(methoxy)-1-[(1R)-1-(2-pyridinyl)ethyl]-1,3-dihydro-2H-imidazo[4,5-c]quinolin-2-one] | ≤ 3.16 | ≤ 3.16 | Animals surviving at 4 days, percent (Balb/c male mice): 83%; Numbers of animals surviving at 4 days (summed across multiple repeat experiments) (Balb/c male mice): 55/66; IC50 [1]: 0.118 to 11.1 µM; IC50 (heme cell lines): 0.118 to 1.04 µM; IC50 (breast cell lines): 0.432 to 11.1 µM
COc1cc2c(cc1-c1c(C)n[nH]c1C)ncc1nc(C3CCOCC3)n([C@H](C)c3ccccc3)c12 [Example 108, 7-(3,5-dimethyl-1H-pyrazol-4-yl)-8-(methyloxy)-1-[(1R)-1-phenylethyl]-2-(tetrahydro-2H-pyran-4-yl)-1H-imidazo[4,5-c]quinoline] | ≤ 3.16 | – | –
